The values that follow come from ChEMBL document CHEMBL3351222, “Novel multi-targeting anthra[2,3-b]thiophene-5,10-diones with guanidine-containing side chains: interaction with telomeric G-quadruplex, inhibition of telomerase and topoisomerase I and cytotoxic properties” (Eur J Med Chem, 2014).

The species entered for data set [1] is Homo sapiens. Put plainly: Binding affinity to human telomeric G-quadruplex TelQ22-DA DNA assessed as interaction with compound at 25 degC by isothermal titration calorimetry. A general note: Isothermal titration calorimetry measures the heat released or taken up as one component is titrated into another.
Data set [2] is filed under the species Homo sapiens. The data set is described as follows: Binding affinity to human telomeric G-quadruplex TelQ22-DA DNA at 65 degC by FRET melting assay.
The target of data set [3] is T1, Telomerase reverse transcriptase (Homo sapiens, UniProt O14746). Put plainly: Inhibition of human telomerase transfected in human HEK293T cells assessed as DNA extension using 5'-d(AATCCGTCGAGCAGAGTT)-3' substrate. To be noted: hek-293t. It counts as cell-based.
For data set [4], the species on record is Homo sapiens. The data set is described as follows: Binding affinity to human telomeric G-quadruplex TelQ24 (5'-d(TTAGGG)4)-3') DNA at 25 degC by fluorescent intercalator displacement assay.
Data set [5] has as its system L1210. The data set is described as follows: Cytotoxicity against mouse L1210 cells after 48 hrs by trypan blue assay. The settings on record: L1210, 48 h. It counts as functional, cell-based.
The species named for data set [6] is Homo sapiens. Put plainly: Binding affinity to human telomeric G-quadruplex TelQ22-DA DNA assessed as change in melting temperature by FRET assay.
Another data set has as its system CCRF-CEM. The data set is described as follows: Cytotoxicity against human CEM cells after 48 hrs by trypan blue assay. It counts as functional, cell-based.
Data set [7] deals with T2, DNA topoisomerase 1 (Homo sapiens) (UniProt P11387).
T2 sequence (whole entry): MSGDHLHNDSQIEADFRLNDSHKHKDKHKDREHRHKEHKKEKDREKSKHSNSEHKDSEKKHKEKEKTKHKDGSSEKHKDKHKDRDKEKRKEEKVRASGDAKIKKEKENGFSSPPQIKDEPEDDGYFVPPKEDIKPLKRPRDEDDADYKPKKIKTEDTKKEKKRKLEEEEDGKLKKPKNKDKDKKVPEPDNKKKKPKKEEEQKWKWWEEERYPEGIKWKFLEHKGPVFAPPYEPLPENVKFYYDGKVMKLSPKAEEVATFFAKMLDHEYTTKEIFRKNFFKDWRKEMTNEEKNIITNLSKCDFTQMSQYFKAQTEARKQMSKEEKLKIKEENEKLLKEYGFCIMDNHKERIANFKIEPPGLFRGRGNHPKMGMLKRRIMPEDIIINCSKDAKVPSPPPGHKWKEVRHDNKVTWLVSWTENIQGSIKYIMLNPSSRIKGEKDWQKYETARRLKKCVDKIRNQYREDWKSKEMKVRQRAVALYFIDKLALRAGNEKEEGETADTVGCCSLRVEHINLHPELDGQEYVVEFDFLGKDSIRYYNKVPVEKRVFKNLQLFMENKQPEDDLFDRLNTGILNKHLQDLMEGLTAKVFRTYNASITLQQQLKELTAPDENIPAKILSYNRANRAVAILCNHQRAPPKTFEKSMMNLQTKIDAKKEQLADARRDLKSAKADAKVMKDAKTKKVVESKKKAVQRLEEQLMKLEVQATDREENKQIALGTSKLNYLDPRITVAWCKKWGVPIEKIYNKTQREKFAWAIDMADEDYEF
The data set is described as follows: Inhibition of topoisomerase 1 (unknown origin)-mediated relaxation of supercoiled pBR322 at 1 uM after 30 mins by agarose gel electrophoresis.

Data set [8] deals with T1, Telomerase reverse transcriptase. The data set is described as follows: Inhibition of human telomerase transfected in human HEK293T cells assessed as DNA extension using 5'-d(AATCCGTCGAGCAGAGTT)-3' substrate by Real-time quantitative telomeric repeat amplification protocol. The class given is cell-based. The settings on record: hek-293t.
The subject of data set [9] is L1210. The data set is described as follows: Drug uptake in mouse L1210 cells at 1 uM after 15 mins. To be noted: l1210, 0.25 h. The class given is ADME, cell-based.
Data set [10] concerns L1210. The data set is described as follows: Drug uptake in mouse L1210 cells at 1 uM after 3 hrs. The class given is ADME, cell-based. To be noted: l1210, 3 h.

Active and inactive are the calls of the source. The rule behind the calls is not given here.

T1 sequence (O14746 whole entry): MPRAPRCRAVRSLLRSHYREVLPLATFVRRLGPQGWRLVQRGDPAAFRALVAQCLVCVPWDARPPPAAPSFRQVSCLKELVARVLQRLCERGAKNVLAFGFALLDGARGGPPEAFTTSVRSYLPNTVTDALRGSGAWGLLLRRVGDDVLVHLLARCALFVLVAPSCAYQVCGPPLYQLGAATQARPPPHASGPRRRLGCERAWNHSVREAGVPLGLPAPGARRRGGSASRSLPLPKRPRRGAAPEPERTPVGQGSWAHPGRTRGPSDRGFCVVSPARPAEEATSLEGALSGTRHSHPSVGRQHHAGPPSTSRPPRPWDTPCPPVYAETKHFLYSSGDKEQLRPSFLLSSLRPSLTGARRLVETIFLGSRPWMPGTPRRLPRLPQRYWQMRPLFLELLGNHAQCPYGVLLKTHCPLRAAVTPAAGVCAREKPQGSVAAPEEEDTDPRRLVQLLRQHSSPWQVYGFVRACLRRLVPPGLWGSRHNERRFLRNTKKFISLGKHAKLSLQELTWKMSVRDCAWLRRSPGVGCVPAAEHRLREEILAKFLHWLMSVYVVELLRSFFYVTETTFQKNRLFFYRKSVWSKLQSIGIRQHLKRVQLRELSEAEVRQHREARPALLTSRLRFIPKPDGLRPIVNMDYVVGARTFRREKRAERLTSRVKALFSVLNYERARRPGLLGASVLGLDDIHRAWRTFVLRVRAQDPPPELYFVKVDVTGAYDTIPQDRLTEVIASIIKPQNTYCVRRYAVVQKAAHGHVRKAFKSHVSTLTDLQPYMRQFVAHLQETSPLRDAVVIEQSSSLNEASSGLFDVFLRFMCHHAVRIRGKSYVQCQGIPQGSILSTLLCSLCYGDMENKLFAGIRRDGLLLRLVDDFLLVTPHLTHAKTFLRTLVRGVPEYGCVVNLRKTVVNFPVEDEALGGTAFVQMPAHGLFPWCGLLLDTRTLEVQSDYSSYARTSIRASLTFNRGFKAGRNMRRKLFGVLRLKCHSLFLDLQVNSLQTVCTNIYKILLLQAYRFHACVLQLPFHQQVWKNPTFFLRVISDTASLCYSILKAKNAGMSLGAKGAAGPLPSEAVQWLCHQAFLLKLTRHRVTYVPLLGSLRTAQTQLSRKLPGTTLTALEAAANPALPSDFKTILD

As to `CNCCNc1c2c(c(NCCNC(=N)N)c3ccsc13)C(=O)c1ccccc1C2=O`, the figures for the Kb in the data set filed under Homo sapiens [1], in the data set listed under Homo sapiens [2] and in the data set filed under Homo sapiens [4] were 4.9 ×10⁶ /M, 1.6 ×10⁶ /M and 5.5 ×10⁶ /M, respectively. Besides, the IC50 (commonly the point on the concentration scale where inhibition reaches its midpoint) was 0.6 µM in data set [3], 23 µM in the data set with L1210 [5], 6 µM in the data set on CCRF-CEM and 0.3 µM in [8]. Besides, in the data set listed under Homo sapiens [6], the ΔTm (in general, the shift of the melting midpoint relative to a reference) stood at 5.4 °C. The inhibition result in [7] is “Active”.
With `N=C(N)NCCNc1c2c(c(N)c3sccc13)C(=O)c1ccccc1C2=O`, the figures for the Kb in the data set listed under Homo sapiens [1], in the data set filed under Homo sapiens [2] and in the data set filed under Homo sapiens [4] were 0.6 ×10⁶ /M, 0.2 ×10⁶ /M and 1.6 ×10⁶ /M, respectively. Also, the IC50 in data set [3] is 2 µM; in the data set with L1210 [5] it was 19 µM; with CCRF-CEM, 16 µM; in data set [8] it was 0.9 µM. For the same compound, the ΔTm in the data set filed under Homo sapiens [6] worked out at 1 °C.
As to `N=C(N)NCCNc1c2c(c(N)c3ccsc13)C(=O)c1ccccc1C2=O`, the Kb in the data set filed under Homo sapiens [1] was found to be 0.5 ×10⁶ /M; in the data set listed under Homo sapiens [2] it was 0.1 ×10⁶ /M; in the data set listed under Homo sapiens [4], 2.1 ×10⁶ /M. The IC50 was 3 µM in [3], 22 µM with L1210 [5], 21 µM in the data set on CCRF-CEM and 0.5 µM in data set [8]. Besides, the ΔTm in the data set filed under Homo sapiens [6] came out at 1 °C. Also, in [7], the inhibition entry is “Active”.
Regarding `Cl.N=C(N)NCCNc1c2c(c(NCCNC(=N)N)c3sccc13)C(=O)c1ccccc1C2=O`, the Kb is 7 ×10⁶ /M in the data set listed under Homo sapiens [2] and 8 ×10⁶ /M in the data set filed under Homo sapiens [4]. For the same compound, the IC50 stood at 0.7 µM in data set [3], 20 µM in the data set with L1210 [5], 11 µM in the data set on CCRF-CEM and 0.08 µM in data set [8]. In addition, the ΔTm in the data set filed under Homo sapiens [6] was 12 °C. Besides, the Drug uptake entry in the data set with L1210 [9] and in the data set on L1210 [10] was “Active” each time. In data set [7], the inhibition entry was “Active”.
As to `Cl.N=C(N)NCCNc1c2c(c(NCCCN)c3sccc13)C(=O)c1ccccc1C2=O`, the results for the Kb in the data set listed under Homo sapiens [1], in the data set listed under Homo sapiens [2] and in the data set listed under Homo sapiens [4] were 3.7 ×10⁶ /M, 5 ×10⁶ /M and 9 ×10⁶ /M, respectively. Also, the IC50 in data set [3] was determined as 0.7 µM; in the data set with L1210 [5] it was 10 µM; with CCRF-CEM, 10 µM; in data set [8], 0.07 µM. Further, in the data set filed under Homo sapiens [6], the ΔTm came out at 10 °C. Also, the Drug uptake result in the data set on L1210 [9] and with L1210 [10] was “Active” each time. The inhibition result in [7] is “Active”.
As for `CNCCNc1c2c(c(NCCNC(=N)N)c3sccc13)C(=O)c1ccccc1C2=O`, the Kb in the data set filed under Homo sapiens [1] was 2.5 ×10⁶ /M; in the data set listed under Homo sapiens [2] it was 1.5 ×10⁶ /M; in the data set listed under Homo sapiens [4], 4 ×10⁶ /M. Further, the IC50 in [3] was determined as 1.1 µM; with L1210 [5], 16 µM; in the data set with CCRF-CEM, 11 µM; in data set [8] it was 0.05 µM. For the same compound, the ΔTm in the data set listed under Homo sapiens [6] was found to be 5.1 °C.
`Nc1c2c(c(N)c3sccc13)C(=O)c1ccccc1C2=O`: the Kb turned out to be 0.01 ×10⁶ /M in the data set listed under Homo sapiens [2] and 1.3 ×10⁶ /M in the data set filed under Homo sapiens [4]. In addition, the IC50 in data set [3] is 10 µM; with L1210 [5] it was over 250 µM; in the data set with CCRF-CEM it was over 250 µM; in data set [8] it was 33 µM. Also, the ΔTm in the data set filed under Homo sapiens [6] was 0.1 °C.
Take `CC(=N)NCCNc1c2c(c(NCCNC(C)=N)c3sccc13)C(=O)c1ccccc1C2=O`: the values for the Kb in the data set filed under Homo sapiens [1], in the data set listed under Homo sapiens [2] and in the data set listed under Homo sapiens [4] were 1.1 ×10⁶ /M, 2.4 ×10⁶ /M and 8 ×10⁶ /M, respectively. The IC50 was 0.47 µM in [3], 36 µM with L1210 [5], 39 µM in the data set with CCRF-CEM and 0.3 µM in data set [8]. For the same compound, the ΔTm in the data set filed under Homo sapiens [6] is 7 °C. Also, in [7], the inhibition result is “Active”.
Take `CNCCNc1c2c(c(NCCNC)c3sccc13)C(=O)c1ccccc1C2=O.Cl`: the results for the Kb in the data set listed under Homo sapiens [1], in the data set listed under Homo sapiens [2] and in the data set listed under Homo sapiens [4] were 1.6 ×10⁶ /M, 1.1 ×10⁶ /M and 11 ×10⁶ /M, respectively. Moreover, the half-inhibitory concentration (IC50) in data set [3] came to 0.7 µM; in the data set with L1210 [5], 0.9 µM; in data set [8], 0.5 µM. In the data set filed under Homo sapiens [6], the ΔTm amounted to 4.3 °C. Also, the Drug uptake result in the data set on L1210 [9] and in the data set with L1210 [10] was “Active” each time. Also, the inhibition result in [7] was “Active”.
As for `N=C(N)NCCNc1c2c(c(NCCN)c3sccc13)C(=O)c1ccccc1C2=O`, the Kb came to 11 ×10⁶ /M in the data set listed under Homo sapiens [1], 1.5 ×10⁶ /M in the data set listed under Homo sapiens [2] and 12 ×10⁶ /M in the data set listed under Homo sapiens [4]. The IC50 in data set [3] is 0.8 µM; in the data set on L1210 [5], 16 µM; with CCRF-CEM, 7 µM; in [8], 0.1 µM. The ΔTm in the data set filed under Homo sapiens [6] was 5 °C. In addition, the inhibition entry in [7] was “Active”.
